Test results: PubChem BioAssay AID330 (DTP/NCI, 2004)
Where “and” joins values, the source holds several entries; their conditions need not be identical. Equal entries are not always repeated. Inconclusive results and toxic doses are left out.

Test system: P388 leukemia ip, CD2F1 mice, survival T/C
Assay: NCI In Vivo Anticancer Drug Screen. Data for tumor model P388 Leukemia (intraperitoneal) in CD2F1 (CDF1) mice
Details: endpoint: median survival time, higher = longer survival
How it was run: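 Mice carrying the transplanted tumor received test compound or vehicle. Survival was recorded in each group, and the value is the treated-group measurement divided by that of the vehicle-treated control group.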

[1] = dose: 100.0 mg/kg/injection, schedule: Q01DX009 (ip), vehicle: saline with Tween-80
[2] = dose: 200.0 mg/kg/injection, schedule: Q01DX009 (ip), vehicle: saline with Tween-80
[3] = dose: 50.0 mg/kg/injection, schedule: Q01DX005 (ip), vehicle: Klucel (hydroxypropylcellulose) (HPC)
[4] = dose: 100.0 mg/kg/injection, schedule: Q01DX005 (ip), vehicle: Klucel (hydroxypropylcellulose) (HPC)
[5] = dose: 200.0 mg/kg/injection, schedule: Q01DX005 (ip), vehicle: Klucel (hydroxypropylcellulose) (HPC)
[6] = dose: 12.5 mg/kg/injection, schedule: Q01DX009 (ip), vehicle: saline with Tween-80
[7] = dose: 25.0 mg/kg/injection, schedule: Q01DX009 (ip), vehicle: saline with Tween-80
[8] = dose: 50.0 mg/kg/injection, schedule: Q01DX009 (ip), vehicle: saline with Tween-80
[9] = dose: 25.0 mg/kg/injection, schedule: Q01DX009 (ip), vehicle: Klucel (hydroxypropylcellulose) (HPC)
[10] = dose: 50.0 mg/kg/injection, schedule: Q01DX009 (ip), vehicle: Klucel (hydroxypropylcellulose) (HPC)
[11] = dose: 50.0 mg/kg/injection, schedule: Q01DX009 (ip), vehicle: saline
[12] = dose: 100.0 mg/kg/injection, schedule: Q01DX009 (ip), vehicle: saline
[13] = dose: 200.0 mg/kg/injection, schedule: Q01DX009 (ip), vehicle: saline
[14] = dose: 25.0 mg/kg/injection, schedule: Q04DX002 (ip), vehicle: saline with Tween-80
[15] = dose: 400.0 mg/kg/injection, schedule: Q01DX009 (ip), vehicle: saline with Tween-80
[16] = dose: 100.0 mg/kg/injection, schedule: Q01DX001 (ip), vehicle: Klucel (hydroxypropylcellulose) (HPC)
[17] = dose: 200.0 mg/kg/injection, schedule: Q01DX001 (ip), vehicle: Klucel (hydroxypropylcellulose) (HPC)
[18] = dose: 400.0 mg/kg/injection, schedule: Q01DX001 (ip), vehicle: Klucel (hydroxypropylcellulose) (HPC)

CCO/C=C/C=C1C(=O)N(C)C(=O)N(C)C1=O
T/C (dose: 25.0 mg/kg/injection, schedule: Q01DX009 (ip), vehicle: saline + Tween-80 + alcohol): 100 % of control and 108 % of control
T/C (dose: 50.0 mg/kg/injection, schedule: Q01DX009 (ip), vehicle: saline + Tween-80 + alcohol): 111 % of control and 118 % of control
T/C (dose: 100.0 mg/kg/injection, schedule: Q01DX009 (ip), vehicle: saline + Tween-80 + alcohol): 108 % of control and 117 % of control
T/C (dose: 200.0 mg/kg/injection, schedule: Q01DX009 (ip), vehicle: saline + Tween-80 + alcohol): 115 % of control and 119 % of control
T/C (dose: 400.0 mg/kg/injection, schedule: Q01DX009 (ip), vehicle: saline + Tween-80 + alcohol): 103 % of control

NNC(=O)CNc1ccccc1Br
T/C (dose: 60.0 mg/kg/injection, schedule: Q01DX005 (ip), vehicle: Klucel (hydroxypropylcellulose) (HPC)): 97 % of control
T/C (dose: 120.0 mg/kg/injection, schedule: Q01DX005 (ip), vehicle: Klucel (hydroxypropylcellulose) (HPC)): 98 % of control

O=C(O)/C=C/c1ccc([N+](=O)[O-])cc1
T/C [1]: 100 % of control
T/C [2]: 105 % of control

COc1cc2ccc(CC(N)=O)cc2cc1OC
T/C [1]: 118 % of control
T/C [2]: 109 % of control

CC1(C)C(=S)C(C)(C)C1=S
T/C [3]: 104 % of control
T/C [4]: 104 % of control
T/C [5]: 108 % of control

O=C1C=CC(=O)C(c2ccc(Cl)cc2)=C1
T/C [6]: 98 % of control
T/C [7]: 90 % of control
T/C [1]: 90 % of control

O=C(O)c1cc(=O)n(CCCCCCn2c(=O)cc(C(=O)O)[nH]c2=O)c(=O)[nH]1
T/C [8]: 98 % of control
T/C [1]: 104 % of control
T/C [2]: 111 % of control

CCn1c(=O)c2[nH]c(I)nc2n(CC)c1=O
T/C [9]: 99 % of control
T/C [10]: 99 % of control
T/C (dose: 100.0 mg/kg/injection, schedule: Q01DX009 (ip), vehicle: Klucel (hydroxypropylcellulose) (HPC)): 106 % of control

Nc1cc2ncccc2c2ccccc12
T/C [11]: 100 % of control and 98 % of control
T/C [12]: 109 % of control
T/C [13]: 106 % of control and 89 % of control

Fc1ccc(N=Cc2ccc(C=Nc3ccc(F)cc3)cc2)cc1
T/C [11]: 100 % of control
T/C [12]: 100 % of control
T/C [13]: 97 % of control

COc1ccc(NC(=O)C2C(=O)N(c3ccc(OC)cc3)C(=O)/C2=N/N=C(N)N)cc1 (stereo unspecified)
T/C [14]: 99 % of control
T/C (dose: 50.0 mg/kg/injection, schedule: Q04DX002 (ip), vehicle: saline with Tween-80): 101 % of control
T/C (dose: 100.0 mg/kg/injection, schedule: Q04DX002 (ip), vehicle: saline with Tween-80): 98 % of control and 101 % of control

COC(=O)Nc1csc2c1NC(=O)CCCC2
T/C (dose: 200.0 mg/kg/injection, schedule: Q04DX003 (ip), vehicle: Klucel (hydroxypropylcellulose) (HPC)): 110 % of control
T/C (dose: 400.0 mg/kg/injection, schedule: Q04DX003 (ip), vehicle: Klucel (hydroxypropylcellulose) (HPC)): 105 % of control

COC1OC2COC(c3ccccc3)OC2C(O)C1O (stereo unspecified)
T/C [8]: 100 % of control
T/C [1]: 107 % of control
T/C [2]: 105 % of control
T/C [15]: 107 % of control

CCOC(=O)CC(=N)C(C#N)C(=O)OCC (stereo unspecified)
T/C (dose: 6.25 mg/kg/injection, schedule: Q01DX009 (ip), vehicle: saline with Tween-80): 101 % of control
T/C [6]: 101 % of control
T/C [7]: 99 % of control
T/C [8]: 99 % of control

N#Cc1[nH]cnc1O
T/C (dose: 50.0 mg/kg/injection, schedule: Q01DX005 (ip), vehicle: saline with Tween-80): 103 % of control
T/C (dose: 100.0 mg/kg/injection, schedule: Q01DX005 (ip), vehicle: saline with Tween-80): 101 % of control
T/C (dose: 200.0 mg/kg/injection, schedule: Q01DX005 (ip), vehicle: saline with Tween-80): 112 % of control

CCP(c1ccccc1)c1ccccc1
T/C [16]: 100 % of control
T/C (dose: 100.0 mg/kg/injection, schedule: Q01DX001 (ip), vehicle: saline): 107 % of control
T/C [17]: 98 % of control
T/C (dose: 200.0 mg/kg/injection, schedule: Q01DX001 (ip), vehicle: saline): 96 % of control
T/C [18]: 103 % of control
T/C (dose: 400.0 mg/kg/injection, schedule: Q01DX001 (ip), vehicle: saline): 96 % of control
T/C (dose: 600.0 mg/kg/injection, schedule: Q01DX001 (ip), vehicle: Klucel (hydroxypropylcellulose) (HPC)): 102 % of control

CC1=CCC2C(C)(C)CCCC2(C)C1CCC(C)(O)C(O)CO (stereo unspecified)
T/C (dose: 25.0 mg/kg/injection, schedule: Q01DX005 (ip), vehicle: Klucel + Tween-80): 98 % of control
T/C (dose: 50.0 mg/kg/injection, schedule: Q01DX005 (ip), vehicle: Klucel + Tween-80): 101 % of control
T/C (dose: 100.0 mg/kg/injection, schedule: Q01DX005 (ip), vehicle: Klucel + Tween-80): 98 % of control
T/C (dose: 200.0 mg/kg/injection, schedule: Q01DX005 (ip), vehicle: Klucel + Tween-80): 100 % of control

COC1(OC)C(=S)N(C(C)C)C(=S)N1C(C)C
T/C [3]: 100 % of control
T/C [4]: 96 % of control
T/C [5]: 100 % of control

CC(C)N[C@@H]1CCC[C@H]1O
T/C [16]: 105 % of control
T/C [17]: 113 % of control
T/C [18]: 115 % of control

CC1=NN(C(C)(C)C)[Si](C)(C)C1
T/C (dose: 25.0 mg/kg/injection, schedule: Q01DX005 (ip), vehicle: Klucel (hydroxypropylcellulose) (HPC)): 96 % of control
T/C [3]: 93 % of control
T/C [4]: 97 % of control

COc1c(C)n(CCO)ccc1=O
T/C (dose: 50.0 mg/kg/injection, schedule: Q01DX005 (ip), vehicle: saline): 102 % of control and 104 % of control
T/C (dose: 100.0 mg/kg/injection, schedule: Q01DX005 (ip), vehicle: saline): 99 % of control and 100 % of control
T/C (dose: 200.0 mg/kg/injection, schedule: Q01DX005 (ip), vehicle: saline): 99 % of control and 100 % of control
T/C (dose: 400.0 mg/kg/injection, schedule: Q01DX005 (ip), vehicle: saline): 99 % of control and 103 % of control

CN1C(=O)CCCCCCCCCCSc2ccccc21
T/C [3]: 93 % of control
T/C [4]: 97 % of control
T/C [5]: 88 % of control

[Cl][Pt+2][Cl].[NH-]c1ccccc1[NH-]
T/C (dose: 6.25 mg/kg/injection, schedule: Q04DX002 (ip), vehicle: saline with Tween-80): 163 % of control
T/C (dose: 12.5 mg/kg/injection, schedule: Q04DX002 (ip), vehicle: saline with Tween-80): 193 % of control
T/C (dose: 12.5 mg/kg/injection, schedule: Q04DX002 (ip), vehicle: saline): 167 % of control
T/C [14]: 110 % of control

COC(=O)c1c(O)c(OC)c(-c2ccccc2)[nH]c1=O
T/C (dose: 60.0 mg/kg/injection, schedule: Q01DX005 (ip), vehicle: saline with Tween-80): 89 % of control
T/C (dose: 120.0 mg/kg/injection, schedule: Q01DX005 (ip), vehicle: saline with Tween-80): 89 % of control

C=C1CC23CC4C5C6(C)CC(O)CC57C(C2C(O)C1C(O)C37)N4C6 (stereo unspecified)
T/C (dose: 12.5 mg/kg/injection, schedule: Q01DX009 (ip), vehicle: Klucel (hydroxypropylcellulose) (HPC)): 101 % of control
T/C [9]: 106 % of control
T/C [10]: 101 % of control

CS(=O)(=O)OCC(=O)NCCNC(=O)COS(C)(=O)=O
T/C (dose: 12.5 mg/kg/injection, schedule: Q04DX003 (ip), vehicle: saline with Tween-80): 100 % of control
T/C (dose: 25.0 mg/kg/injection, schedule: Q04DX003 (ip), vehicle: saline with Tween-80): 108 % of control
T/C (dose: 50.0 mg/kg/injection, schedule: Q04DX003 (ip), vehicle: saline with Tween-80): 120 % of control

CCCCCCC(=O)/C=C/c1ccc(OC(=O)c2ccc(Br)cc2)cc1
T/C [6]: 104 % of control
T/C [7]: 96 % of control
T/C [8]: 96 % of control

NS(=O)(=O)c1cccnc1Nc1ccc([N+](=O)[O-])cc1
T/C [11]: 105 % of control
T/C [12]: 101 % of control
T/C [13]: 93 % of control

Cc1nc2nc(Cl)c(Cl)nc2[nH]1
T/C [7]: 100 % of control
T/C [8]: 104 % of control
T/C [1]: 104 % of control

CCC(=O)Nc1ccc(Br)cc1
T/C [8]: 102 % of control
T/C [1]: 94 % of control
T/C [2]: 96 % of control
T/C [15]: 96 % of control

Clc1cc2nsnc2cc1Cl
T/C (dose: 50.0 mg/kg/injection, schedule: Q04DX003 (ip), vehicle: saline): 100 % of control
T/C (dose: 100.0 mg/kg/injection, schedule: Q04DX003 (ip), vehicle: saline): 94 % of control
T/C (dose: 200.0 mg/kg/injection, schedule: Q04DX003 (ip), vehicle: saline): 104 % of control
T/C (dose: 400.0 mg/kg/injection, schedule: Q04DX003 (ip), vehicle: saline): 101 % of control
